In US5916908A, “Pharmaceutical pyrazole compositions useful as inhibitors of protein kinases” (COR Therapeutics, Inc., priority 1995, dated 1999):
Where two headings read alike, the source gives them in different places.

Legend:
[1] = test system: 32D-αR cells; assay: PDGF induced proliferation ([3H]thymidine incorporation) in 32D-αR cells; assay type: cell-based; conditions: Mus musculus
Method: Briefly, 32D-αR cells were grown in interleukin 3 (IL-3)-conditioned RPMI media with 10% fetal bovine serum and washed 2 times with RPMI with 10% fetal bovine serum, resuspended at 5×10^5 cells/ml in the same media and then dispensed at 250 μl/well in 24 well plates (Falcon). […] The cells were incubated for 43 hours followed for a further 3 hour incubation with [^3 H]thymidine (10 μCi/well). The cells are then harvested with an automated cell harvester, filters are placed in liquid scintillation mixture and counted in a β counter.

[2] = test system: CCD18 cells; assay: inhibition of cell proliferation under normal tissue culture conditions, CCD18; assay type: cell-based; conditions: Homo sapiens, 96 h, read-out: IC50 CCD18
[3] = molecular target: human beta PDGFR (Homo sapiens, UniProt P09619); assay: beta PDGFR autophosphorylation in HR5-βR cells; conditions: for inhibition of protein kinase activity of βPDGFR: compounds of Table 1B, evaluated similar to Example 1
Chain of human beta PDGFR (P09619 33-1106): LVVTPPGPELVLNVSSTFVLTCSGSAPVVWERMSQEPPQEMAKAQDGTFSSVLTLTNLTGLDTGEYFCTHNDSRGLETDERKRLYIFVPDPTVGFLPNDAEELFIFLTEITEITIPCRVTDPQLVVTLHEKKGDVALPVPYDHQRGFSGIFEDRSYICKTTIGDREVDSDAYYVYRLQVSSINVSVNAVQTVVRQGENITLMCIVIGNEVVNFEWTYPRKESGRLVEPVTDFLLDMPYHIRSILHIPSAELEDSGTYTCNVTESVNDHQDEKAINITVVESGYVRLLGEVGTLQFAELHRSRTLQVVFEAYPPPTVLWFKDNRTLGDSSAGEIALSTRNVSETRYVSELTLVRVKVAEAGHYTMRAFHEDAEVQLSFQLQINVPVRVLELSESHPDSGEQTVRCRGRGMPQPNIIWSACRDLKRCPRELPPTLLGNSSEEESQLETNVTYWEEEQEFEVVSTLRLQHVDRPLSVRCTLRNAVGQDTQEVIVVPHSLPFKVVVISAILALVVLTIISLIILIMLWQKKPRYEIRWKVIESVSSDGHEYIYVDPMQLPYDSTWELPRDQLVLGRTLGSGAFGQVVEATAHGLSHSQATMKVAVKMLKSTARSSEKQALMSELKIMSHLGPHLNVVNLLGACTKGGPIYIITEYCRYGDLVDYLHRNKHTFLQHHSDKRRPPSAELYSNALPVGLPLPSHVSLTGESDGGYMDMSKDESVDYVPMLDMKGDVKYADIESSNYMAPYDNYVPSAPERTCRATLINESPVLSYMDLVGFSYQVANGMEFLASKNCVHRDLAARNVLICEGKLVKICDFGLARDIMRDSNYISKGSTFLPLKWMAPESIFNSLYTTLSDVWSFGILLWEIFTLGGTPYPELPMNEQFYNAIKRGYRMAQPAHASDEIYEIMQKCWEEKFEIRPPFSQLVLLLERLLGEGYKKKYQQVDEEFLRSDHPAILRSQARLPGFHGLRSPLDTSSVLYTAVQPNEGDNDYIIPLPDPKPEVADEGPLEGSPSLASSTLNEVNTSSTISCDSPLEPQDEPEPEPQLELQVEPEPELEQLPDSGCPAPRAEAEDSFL

[4] = molecular target: Protein Kinase A (PKA) (Homo sapiens, UniProt P17612); assay: Protein Kinase A assay (non-radioactive)
[5] = test system: HS68 cells; assay: inhibition of cell proliferation under normal tissue culture conditions, HS68; conditions: Homo sapiens, Hs68, 96 h, read-out: IC50 HS68
[6] = molecular target: src-kinase (Homo sapiens, UniProt P12931); assay: inhibition of recombinant c-src kinase; conditions: for potency on src kinase activity compared with PDGFR kinase activity: src vs PDGFR
Chain of src-kinase (P12931 whole entry): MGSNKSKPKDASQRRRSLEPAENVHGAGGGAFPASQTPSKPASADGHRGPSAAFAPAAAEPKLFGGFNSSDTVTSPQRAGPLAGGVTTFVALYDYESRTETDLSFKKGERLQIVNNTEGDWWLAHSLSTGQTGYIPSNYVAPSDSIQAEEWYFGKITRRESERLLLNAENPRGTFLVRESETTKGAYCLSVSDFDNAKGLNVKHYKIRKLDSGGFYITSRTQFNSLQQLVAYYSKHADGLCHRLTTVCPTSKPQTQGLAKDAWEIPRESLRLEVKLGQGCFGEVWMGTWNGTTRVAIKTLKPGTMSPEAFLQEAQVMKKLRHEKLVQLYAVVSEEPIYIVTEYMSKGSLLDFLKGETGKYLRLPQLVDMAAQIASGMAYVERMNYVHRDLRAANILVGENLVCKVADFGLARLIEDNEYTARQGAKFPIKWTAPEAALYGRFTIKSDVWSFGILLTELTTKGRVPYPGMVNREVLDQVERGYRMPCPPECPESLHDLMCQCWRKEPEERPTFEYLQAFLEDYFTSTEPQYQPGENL

[7] = test system: WS1 cells; assay: inhibition of cell proliferation under normal tissue culture conditions, WS1; conditions: Homo sapiens, WS1, 96 h, read-out: IC50 WS1
[8] = test system: HS27 cells; assay: inhibition of cell proliferation under normal tissue culture conditions, HS27; conditions: Homo sapiens, HS27, 96 h, read-out: IC50 HS27
[9] = molecular target: T1, human alpha PDGFR (Homo sapiens, UniProt P16234); assay: alpha PDGFR autophosphorylation in 32D-αR cells; assay type: cell-based; conditions: for inhibition of protein kinase activity of αPDGFR: compounds of Table 1B, evaluated similar to Example 1
T1 construct: expressed in transfected cells; host or cells: 32D-αR (mouse hematopoietic cell line 32D)
T1 sequence (P16234 24-1089): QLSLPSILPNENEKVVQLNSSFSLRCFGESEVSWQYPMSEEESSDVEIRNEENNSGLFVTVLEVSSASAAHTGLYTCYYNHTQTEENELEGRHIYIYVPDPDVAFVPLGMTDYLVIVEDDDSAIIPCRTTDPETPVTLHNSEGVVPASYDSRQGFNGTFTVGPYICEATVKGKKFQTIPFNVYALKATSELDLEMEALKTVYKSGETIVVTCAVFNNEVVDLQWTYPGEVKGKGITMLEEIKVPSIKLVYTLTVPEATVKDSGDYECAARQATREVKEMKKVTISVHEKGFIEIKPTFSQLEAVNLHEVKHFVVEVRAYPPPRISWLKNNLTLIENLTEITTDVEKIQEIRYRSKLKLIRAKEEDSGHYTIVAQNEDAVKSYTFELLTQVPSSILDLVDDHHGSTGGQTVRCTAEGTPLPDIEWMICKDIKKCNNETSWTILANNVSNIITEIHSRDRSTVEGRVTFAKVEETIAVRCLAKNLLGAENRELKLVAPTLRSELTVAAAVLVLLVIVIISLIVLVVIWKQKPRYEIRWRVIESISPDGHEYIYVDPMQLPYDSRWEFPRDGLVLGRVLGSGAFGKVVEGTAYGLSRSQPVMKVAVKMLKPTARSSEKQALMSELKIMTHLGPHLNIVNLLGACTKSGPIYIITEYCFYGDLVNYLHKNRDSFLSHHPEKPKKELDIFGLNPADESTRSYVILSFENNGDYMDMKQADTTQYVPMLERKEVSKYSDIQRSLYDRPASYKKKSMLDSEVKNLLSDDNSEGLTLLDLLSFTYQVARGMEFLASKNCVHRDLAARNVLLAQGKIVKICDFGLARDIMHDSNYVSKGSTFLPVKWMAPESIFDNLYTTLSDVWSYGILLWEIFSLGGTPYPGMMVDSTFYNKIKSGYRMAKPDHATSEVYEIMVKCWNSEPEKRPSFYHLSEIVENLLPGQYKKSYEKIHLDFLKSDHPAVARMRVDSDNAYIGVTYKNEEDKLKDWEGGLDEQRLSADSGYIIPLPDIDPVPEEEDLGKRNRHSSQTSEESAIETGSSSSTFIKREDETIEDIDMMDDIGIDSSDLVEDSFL
Text: The stimulation of cell proliferation by growth factors such as PDGF, FGF and EGF is dependent upon their induction of autophosphorylation of each of their respective receptor's tyrosine kinases. Therefore, the ability of a PTK inhibitor to block cellular proliferation induced by these growth factors is directly correlated with its ability to block receptor autophosphorylation. To measure alpha PDGFR autophosphorylation a previously described mouse hematopoietic cell line, 32D-αR, which had been engineered to overexpresses the human alpha PDGFR was used. These cells were grown in suspension to 10^6 cells/ml in RPMI (Gibco BRL) media containing 10% fetal bovine serum and 5% WEHI conditioned media (tissue culture media conditioned by WEHI cells available from ATCC) as previously described. The cells were pelleted by low speed centrifugation and resuspended in serum-free RPMI prior to distribution at 500,000 cells/well in 96 well conical bottom microtiter plates (Falcon). Compounds (0.01-30 μM) were added to the wells at room temperature 15 minutes prior to the addition of PDGF AA (15 ng/ml) and the incubation was continued on ice for 90 minutes in a final incubation volume of 100 μl. The cells were then pelleted at 2000 rpm for 10 minutes at 4° C. and 50 μl of freshly prepared lysis buffer (20 mM Tris at pH 7.3, 150 mM NaCl, 1% Triton X-100, 1 mM phenylmethyl-sulfonyl fluoride (PMSF), 1 mM sodium orthovanadate, […] and 10 mg/ml leupeptin) was added directly to each well, incubation was continued for 10 minutes on ice and cell lysis was facilitated by vigorous agitation on a plate shaker. The cell lysates were cleared by centrifugation at 2,000 rpm for 10 minutes prior to analysis.
In a separate microtiter plate, monoclonal antibodies (prepared at COR Therapeutics, Inc.) directed against the extracellular domain of the alpha PDGFR (MAb αR10) or the beta PDGFR (MAb 1B5B11) were immobilized by incubating 0.5 μg of antibody per well at 4° C. for 18 hours in 23 mM Tris at pH 8.0, 68 mM NaCl, 14 mM ammonium bicarbonate and 0.01% sodium azide. Unbound antibody was removed and the wells were blocked with 25 mM N-(2-hydroxyethyl)piperazine-N'-(2-ethanesulfonic acid) (HEPES) pH 7.6, 100 mM NaCl, and 0.2% Tween 20 just prior to the addition of cell lysate that had been diluted 1:2 in binding buffer (blocking buffer with 0.3% gelatin). 32D-αR or HR5-βR cell lysate was incubated with immobilized MAb αR10 or MAb 1B5B11, respectively, for 2 hours at room temperature and wells were washed 3 times with 200 μl of wash buffer (phosphate buffered saline "PBS", 0.01% Tween 20). […] Product formation was monitored at 650 nm using a microtiter plate reader (Molecular Devices).

[10] = test system: human cell lines (HS68, HS 27, CCD18, WS1); assay: inhibition of proliferation of human cell lines under standard tissue culture conditions (collective statement)
[11] = test system: HR5-βR cells; assay: inhibition of cell proliferation under normal tissue culture conditions, HR5-βR; conditions: for IC50: Cricetulus griseus
Method: The effect of these compounds on normal cell growth was also evaluated with HR5-βR cells which were previously used to measure beta PDGFR autophosphorylation.

[12] = test system: Protein Kinase C (PKC); assay: Protein Kinase C assay (non-radioactive); conditions: 40 μM
[13] = molecular target: T2, human FGFR-1 (Homo sapiens, UniProt P11362); assay: FGFR-1 autophosphorylation in CHO cells; assay type: cell-based
T2 construct: expressed in transfected cells; host or cells: CHO
T2 sequence (P11362 22-822): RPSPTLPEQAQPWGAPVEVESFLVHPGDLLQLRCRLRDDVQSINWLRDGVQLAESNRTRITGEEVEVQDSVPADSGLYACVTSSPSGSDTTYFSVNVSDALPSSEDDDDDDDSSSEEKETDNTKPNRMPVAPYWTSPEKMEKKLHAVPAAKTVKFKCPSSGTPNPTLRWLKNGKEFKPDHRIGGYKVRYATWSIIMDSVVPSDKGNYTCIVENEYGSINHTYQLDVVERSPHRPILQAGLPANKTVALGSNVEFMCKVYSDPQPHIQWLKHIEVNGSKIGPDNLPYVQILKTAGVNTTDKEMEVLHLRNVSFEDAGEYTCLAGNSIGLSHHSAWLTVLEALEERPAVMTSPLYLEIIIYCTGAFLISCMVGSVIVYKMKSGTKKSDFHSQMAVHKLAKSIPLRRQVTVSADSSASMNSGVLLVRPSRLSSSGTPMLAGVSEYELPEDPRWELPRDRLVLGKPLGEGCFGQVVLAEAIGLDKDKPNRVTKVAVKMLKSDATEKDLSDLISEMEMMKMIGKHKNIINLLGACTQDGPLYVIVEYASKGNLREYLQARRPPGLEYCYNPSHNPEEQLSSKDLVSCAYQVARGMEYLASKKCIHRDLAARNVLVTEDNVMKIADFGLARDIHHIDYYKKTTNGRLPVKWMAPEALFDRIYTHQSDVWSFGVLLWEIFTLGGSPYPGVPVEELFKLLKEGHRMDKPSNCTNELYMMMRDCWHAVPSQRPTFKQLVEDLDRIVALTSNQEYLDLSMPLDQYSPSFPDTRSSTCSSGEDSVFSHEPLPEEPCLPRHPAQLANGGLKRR
Method: In order to measure FGFR-1 autophosphorylation, the human FGFR-1 cDNA was stably over-expressed in CHO cells using standard techniques. These cells were grown to confluency in RPMI with 10% fetal bovine serum, the media was replaced with serum-free RPMI and incubation continued for 18 hours prior to stimulation with βFGF (75 ng/ml) for 10 min. at 37° C. in the absence or presence of PTK inhibitors in a concentration range of 0.1-30 μM. Cell lysates were prepared under the same conditions as described above for the EGFR assay. Lysates were incubated with a monoclonal antibody directed against the FGFR-1 extracellular domain (MAb 1H9D3 which was prepared at COR) and the immunoprecipitated receptor was subjected to SDS-PAGE and Western blot analysis with 4G10 horse radish peroxidase conjugated antiphosphotyrosine antibodies (UBI) and detection was done by chemiluminescence (Amersham).

[14] = molecular target: EGFR (Homo sapiens, UniProt P00533); assay: EGFR autophosphorylation in MDA MB 468 cells; assay type: cell-based; conditions: EGF 100 ng/ml
Chain of EGFR (P00533 25-1210): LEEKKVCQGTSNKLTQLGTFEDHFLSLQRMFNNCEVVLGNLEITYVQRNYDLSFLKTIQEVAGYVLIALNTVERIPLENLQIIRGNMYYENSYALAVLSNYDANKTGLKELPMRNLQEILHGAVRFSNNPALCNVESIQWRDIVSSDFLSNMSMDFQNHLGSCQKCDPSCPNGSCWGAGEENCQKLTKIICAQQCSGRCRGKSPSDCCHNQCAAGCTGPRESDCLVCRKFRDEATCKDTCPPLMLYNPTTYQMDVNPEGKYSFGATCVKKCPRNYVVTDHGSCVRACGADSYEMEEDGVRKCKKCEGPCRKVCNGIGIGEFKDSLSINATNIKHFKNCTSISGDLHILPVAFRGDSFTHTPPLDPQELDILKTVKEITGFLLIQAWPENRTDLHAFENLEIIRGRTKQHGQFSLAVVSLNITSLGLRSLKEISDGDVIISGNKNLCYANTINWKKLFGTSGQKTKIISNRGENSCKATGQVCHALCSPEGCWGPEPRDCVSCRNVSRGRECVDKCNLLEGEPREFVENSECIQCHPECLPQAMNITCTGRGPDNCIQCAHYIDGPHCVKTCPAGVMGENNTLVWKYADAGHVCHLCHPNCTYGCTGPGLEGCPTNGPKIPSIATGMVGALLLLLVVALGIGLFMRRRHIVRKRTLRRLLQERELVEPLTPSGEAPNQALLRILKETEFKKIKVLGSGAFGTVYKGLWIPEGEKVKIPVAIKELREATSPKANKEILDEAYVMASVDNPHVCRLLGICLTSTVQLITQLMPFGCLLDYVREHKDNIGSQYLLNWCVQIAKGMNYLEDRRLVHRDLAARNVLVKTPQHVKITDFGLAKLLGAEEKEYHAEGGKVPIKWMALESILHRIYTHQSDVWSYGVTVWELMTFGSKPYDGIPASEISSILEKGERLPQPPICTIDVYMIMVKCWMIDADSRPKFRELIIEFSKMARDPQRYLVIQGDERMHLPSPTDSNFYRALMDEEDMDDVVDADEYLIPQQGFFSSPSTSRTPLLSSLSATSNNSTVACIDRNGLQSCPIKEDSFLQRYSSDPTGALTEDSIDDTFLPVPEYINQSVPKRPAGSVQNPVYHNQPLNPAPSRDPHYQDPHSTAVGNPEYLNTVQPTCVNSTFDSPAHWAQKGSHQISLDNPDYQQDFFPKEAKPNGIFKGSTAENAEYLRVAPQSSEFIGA
Method: These cells were grown to confluency in 6-well plates and incubated in serum-free Dulbecco's Modified Eagle Medium (DMEM) 18 hours. The cells were exposed to various concentrations (0.01-30 μM) of compounds for 15 minutes and then to EGF (100 ng/ml) for 10 minutes at 37° C. The cells were scraped and lysates were prepared in the same buffer as described for 32D-αR cells prior to fractionation by conventional SDS PAGE followed by Western blot analysis. For this, proteins were transferred onto nitrocellulose and the membrane was blocked in Tris buffer saline (TBS), pH 7.0, 0.1% Tween 20, 5% dry milk. The membrane was blotted with anti-phosphotyrosine antibody (UBI, 1 μg/ml) in binding buffer (TBS, 0.1% Tween 20; 1% dry milk) for 2 hours at room temperature. Detection was performed using a goat anti-rabbit-horseradish peroxidase conjugated IgG (Boehringer Mannheim). The blot was developed using a chemiluminescent system (Amersham).

In the case of `O=C(Nc1cc(-c2ccccc2)[nH]n1)c1ccccc1` [Compound 1, 3-benzoylamino-5-phenylpyrazole], the IC50 ([1]; read-out: concentration blocking PDGF induced thymidine incorporation by 50%) is reported as 700 nM, the IC100 ([1]; PDGF AA 30 ng/ml, FIG. 2, read-out: concentrations at which mitogenicity was completely inhibited) is reported as > 1 µM and the IC50 [2] is reported as > 30000 nM. For the same molecule, the IC50 [3] was 220 nM, the IC (maximal) ([3]; read-out: concentration at which inhibition of beta PDGFR autophosphorylation was maximal) was 5 µM and the IC50 [4] was > 40000 nM. For the same molecule, the inhibition at 40 µM ([4]; read-out: reduction in PKA activity) was < 50%, the IC50 [5] was > 30000 nM and the IC50 [6] was 8000 nM. For the same molecule, the “potency on src kinase activity compared with PDGFR kinase activity” value (from here on “potency … compared with PDGFR kinase activity”) [6] was “selective for inhibiting PDGFR kinase activity”, the IC50 [7] was > 30000 nM and the IC50 [8] was > 30000 nM. For the same molecule, the IC50 ([9]; Table 2, autophosphorylation, 32D-αR cells, PDGF AA 15 ng/ml, read-out: IC50 αPDGFR) was 170 nM, the “inhibition of alpha PDGFR autophosphorylation” value ([9]; compared with beta receptor) was “inhibit alpha PDGFR autophosphorylation over the same concentration range as that observed for the beta receptor” and the inhibition at 30 µM ([10]; Homo sapiens, 96 h, read-out: decrease in cell growth of human cell lines) was 10 to 20%. For the same molecule, the “decrease in cell growth of human cell lines” value ([10]; concentrations up to 10 μM) was “no decrease in cell growth”, the IC50 ([11]; 96 h, read-out: IC50 HRS-βR) was 28000 nM and the “reduction in PKC activity” value [12] was < 50%. For the same molecule, the IC50 ([13]; Table 2, autophosphorylation, CHO cells, βFGF 75 ng/ml) was > 30000 nM and the “inhibition of FGFR-1 autophosphorylation” value ([13]; concentrations as high as 30 μM) was “no detectable inhibition”.

For `O=C(Nc1cc(-c2ccc(Cl)cc2)n[nH]1)c1ccccc1` [Compound 45], the “inhibition of protein kinase activity of βPDGFR” value [3] was “exhibited the best activities” and the “inhibition of protein kinase activity of αPDGFR” value [9] was “exhibited the best activities”.

In the case of `O=C(Nc1cc(-c2cccs2)n[nH]1)c1ccccc1` [Compound 46], the “inhibition of protein kinase activity of βPDGFR” value [3] is reported as “exhibited the best activities” and the “inhibition of protein kinase activity of αPDGFR” value [9] is reported as “exhibited the best activities”.

`COC(=O)[C@@]1(O)C[C@H]2O[C@]1(C)n1c3ccccc3c3c4c(c5c6ccccc6n2c5c31)C(=O)NC4` [Compound K252a] was tested, and the IC50 [14] was 1000 nM, the IC50 ([6]; read-out: IC50 src-kinase, recombinant c-src, 50 μM ATP) was 20 nM and the IC50 ([6]; read-out: src kinase IC50, recombinant c-src) was 20 nM. For the same molecule, the “potency … compared with PDGFR kinase activity” value [6] was “equally or more potent at inhibiting src kinase activity as they are PDGFR kinase activity”, the “HR5-βR growth inhibition compared with inhibition of PDGFR phosphorylation” value [11] was “lower concentrations than those required to inhibit PDGFR phosphorylation” and the IC50 ([11]; 96 h, read-out: IC50 HRS-βR) was 130 nM. It also gave an IC50 ([11]; read-out: IC50 HR5-βR cell growth) of 130 nM.

For `CN[C@@H]1C[C@H]2O[C@@](C)([C@@H]1OC)n1c3ccccc3c3c4c(c5c6ccccc6n2c5c31)C(=O)NC4` [Staurosporin, reference compound], the “potency … compared with PDGFR kinase activity” value [6] was “equally or more potent at inhibiting src kinase activity as they are PDGFR kinase activity” and the “growth of all of the human cell lines” value ([10]; 0.01 μM) was “completely blocked”.
